The values that follow come from patent US20230052517A1, “ELECTROCHEMICAL SENSING METHODS AND APPARATUS FOR DETERMINING DRUG UPTAKE AND RETENTION IN CELLS” (priority 2020, published 2023).

Data set [1] has as its system Pseudomonas aeruginosa PAO1 (wild type strain, containing efflux pumps). Description: Tobramycin uptake by DPV of the supernatant, PAO1 strain. It counts as cell-based. The settings on record: for Percentage of Tobramycin in Supernatant, PAO1: 2 mM Tobramycin, 1X PBS, 0.4% glucose, 37° C., DPV on GCE at pH 3. The protocol: (§1) (i.e. 15 minutes; 30 minutes and 60 minutes). […] Integration underneath the curves provides the charge.
(§2) The uptake of another antibiotic, Tobramycin (2 mM) was analyzed in Pseudomonas aeruginosa using DPV. […] As summarized in TABLE 3, the concentration of the control remains stable over different times of incubation at 37° C. […] At 15 min, the hyper-susceptible PAO750 removes about 26% of Tobramycin, which is slightly more than the wild type. […] A concentration of 2 mM Tobramycin appears to have been too high for the cells to withstand. […] As both of these strains are not resistant to Tobramycin, cell lysis at prolonged incubation times was expected.

Data set [2] concerns Pseudomonas aeruginosa PAO750 (hyper-susceptible strain, efflux pumps deleted). It counts as cell-based. As to conditions: for Percentage of Tobramycin in Supernatant, PAO750: 2 mM Tobramycin, 1X PBS, 0.4% glucose, 37° C., DPV on GCE at pH 3. The protocol: as §1, §2
Data set [3] in a line: Control drug solution without bacterial cells incubated at 37° C., DPV. As to conditions: for Percentage of Tobramycin in Supernatant, Control: 2 mM Tobramycin in 1X PBS, 0.4% glucose without bacterial cells. Here is the method: DPV measurements of 1 mM Cip were taken and after incubation, centrifugation was performed at 4000 rpm for 10 min and the supernatant was collected.
Similarly uptake of Tobramycin (2 mM), was analyzed in Pseudomonas aeruginosa also using DPV. The control solutions were tested before and after incubation at 37° C. and with different incubation times at 37° C. (i.e. 15 minutes; 30 minutes and 60 minutes). […] Integration underneath the curves provides the charge. This charge is proportional to the number of molecules transferred during DPV recordings (see FIGS. 11-14).

In data set [4] the test system is A2780-s and A2780-cp ovarian cancer cells. Put plainly: SECM electrochemical response of ovarian cancer cells to carboplatin (FcCH2OH regeneration). It counts as cell-based. Here is the method:
Carboplatin-susceptible (A2780-s) and carboplatin-resistant (A2780-cp) ovarian cancer cells were grown in petri dishes at 37° C. until a confluence of approximately 60 to 70% was reached. Cells were exposed to a PBS solution containing 1 mM ferrocenemethanol (FcCH2OH) at 37° C. for 45 minutes. Following this incubation, the petri dish was inserted into a scanning electrochemical microscope (SECM), equipped with a camera, fluorescence unit and a heating stage. Target cells were identified using an approach curve and a horizontal line scan was carried out across the cells every 5 to 10 minutes. The solution in the petri dish was exchanged for a PBS solution containing 2 mM carboplatin and 1 mM ferrocenemethanol (FcCH2OH). Horizontal line scans were carried out every 5 to 10 minutes to record the electrochemical response by the cells.

Data set [5] relates to carboplatin-susceptible and carboplatin-resistant ovarian cancer cell line. Description: Voltammetric carboplatin uptake study in ovarian cancer cells. It counts as cell-based. As to conditions: one carboplatin-susceptible and one carboplatin-resistant cell line. The protocol: Further work was done by the inventors^45 to evaluate the electrochemical detection of chemotherapeutic uptake by ovarian cancer cells, whereby an electrochemical characterization of carboplatin was evaluated for detection limits and pH dependence. Furthermore, bioelectrochemical studies quantified carboplatin uptake by ovarian cancer cells.

The test system of data set [6] is Pseudomonas bacteria (PAO1 and PA262). The settings on record: not told. Here is the method: After 25 min of incubation, the bacteria suspension is centrifuged, cells are resuspended in PBS and drop-casted onto a 3-mm glassy carbon macroelectrode (see FIG. 1D). Other macroelectrode materials, such as gold, platinum, etc. could be employed in the same way. The electrode is then placed in a KCl solution and DPV is performed at a potential rage of zero to 1.0V. This potential range would be adjusted depending on the drug of interest.
When the electrode is placed in the KCl solution, various time intervals were applied before driving the oxidation reaction at the electrode.

Like-named read-outs stand apart in the source and are kept apart here.

On to `NC[C@H]1O[C@H](O[C@H]2[C@H](O)[C@@H](O[C@H]3O[C@H](CO)[C@@H](O)[C@H](N)[C@H]3O)[C@H](N)C[C@@H]2N)[C@H](N)C[C@@H]1O` [Tobramycin], for which the “Percentage of Tobramycin in Supernatant, PAO1” value in data set [1] (15 minutes) turned out to be 80%; in data set [1] (30 minutes), 81%; in data set [1] (60 minutes), 99%. Also, the “uptake observation at prolonged incubation, PAO1” value in data set [1] (2 mM, 60 min) is reported as “A similar effect is seen in PAO1”. Besides, the “Tobramycin taken up from the solution by PAO1” value in data set [1] (2 mM, incubation times of 15 and 30 min) is recorded as “approximately 20%”. The “time to establishment of equilibrium of intracellular and extracellular Tobramycin” value in data set [1] (PAO1, 2 mM) is reported as less than 15 min. For the same compound, the “Percentage of Tobramycin in Supernatant, PAO750” value came out at 74% in data set [2] (15 minutes), 95% in data set [2] (30 minutes) and 99% in data set [2] (60 minutes). For the same compound, the “Tobramycin removed by PAO750” value in data set [2] (2 mM, 15 min) was “about 26%”. For the same compound, the “uptake observation at prolonged incubation, PAO750” value in data set [2] (2 mM, 30 min) is given as “the uptake is failing, probably due to cell lysis of PAO750”. Also, in data set [3] (2 mM), the “stability of Tobramycin control solution (DPV currents before and after incubation)” value was “do not vary, indicating stable 2 mM Tobramycin concentrations”. For the same compound, the figures for the “Percentage of Tobramycin in Supernatant, Control” value in data set [3] (15 minutes), in data set [3] (30 minutes) and in data set [3] (60 minutes) were 99%, 99% and 95%, respectively.
Consider `N.N.O=C([O-])C1(C(=O)[O-])CCC1.[Pt+2]` [carboplatin], for which, in data set [4] (A2780-cp cells), the “time for slope increase to relax back to its initial value” lay in the range of 5 to 10 min. In data set [4] (A2780-cp cells, 2 mM carboplatin, 1 mM FcCH2OH), the “change of slope (peak current vs scan velocity) after drug exposure” value is given as “an increase in slope right after carboplatin exposure was observed”. Further, the “difference in SECM response between susceptible and resistant cells” value in data set [4] (A2780-s vs A2780-cp) was “A clear difference between carboplatin-susceptible and carboplatin-resistant cells”. In data set [5], the “drug uptake detected by voltammetry” value was “demonstrated the detection of carboplatin uptake”.
Turning to `O=C(O)c1cn(C2CC2)c2cc(N3CCNCC3)c(F)cc2c1=O` [ciprofloxacin], in data set [6], the “DPV current of drop-casted bacteria after incubation with drug (export from the bacteria)” value is reported as “significant increase in current” and the “dependence of export current peak on wait time” value was “a longer wait time results in a higher current peak”.
